pKd: −log10 of the molar value.
What was measured:
plasmid DNA = conditions: 100 nM
Method: In vitro Bleomycin cleavage of DNA plasmid. […] Another equivalent of (NH4)2Fe(SO4)2.6H2O was added after 30 min and 60 min respectively. The mixture was loaded on 1% agarose with 6× loading dye and stained with ethidium bromide. Bands were quantified using ImageJ image analysis software.

pri-miR-17-92 cluster [1] = assay: RT-qPCR of pri-, pre- and mature miRNAs in DU-145 cells; format: cell-based, human; conditions: DU-145, treatment with 7
Method: RT-qPCR in DU145, MDA-MB-231, and WT-9-12 cells. DU145 cells were seeded into 12-well plates at ˜50% confluency (≈200,000 cells/well) and allowed to adhere for 12 h. After adhering, the cells were treated with compounds 2, 5, 6, or 7 (10, 100, and 500 nM) for 24 h. Total RNA was then harvested using a Zymo-Quick RNA Mini prep kit (Zymo Research) with DNase treatment according in the manufacturers protocol. Reverse transcription (RT) for mature miRNAs was done using the miScript II RT kit (Qiagen) with 200 ng of total RNA. To measure precursor and mRNA levels, RT was done using qScript (Quanta Bio) according to the manufacturers protocol on 1000 ng of total RNA. RT-qPCR was carried out on an Applied Biosystems 7900HT cycler under standard conditions (2 step PCR; 60° C. annealing/elongation, 95° C. melt) using the Power Sybr Master Mix (Applied Biosystems). […] Total RNA was extracted in a similar manner and subjected to RT-qPCR as described above. RT for precursor and mRNAs in MDA-MB-231 cells was done using the High Flex buffer in the miScript II RT kit.
Absolute quantification of pri-, pre-, and mature miRNAs. Transcripts of pre-miR-17, pre-miR-18a, and the corresponding 5p mature sequences were transcribed in vitro and purified as described above. Precursor miRNAs (1×10^14 copies) were reverse transcribed using QScript RT (Quanta bio) in a total volume of 40 μL. […]

pri-miR-17-92 cluster [2] = assay: RT-qPCR of pri-, pre- and mature miRNAs in MDA-MB-231 cells; format: cell-based, human
Method: Absolute quantification of pri-, pre-, and mature miRNAs. Transcripts of pre-miR-17, pre-miR-18a, and the corresponding 5p mature sequences were transcribed in vitro and purified as described above. Precursor miRNAs (1×10^14 copies) were reverse transcribed using QScript RT (Quanta bio) in a total volume of 40 μL. Mature miRNAs (1×10^14 copies) were reverse transcribed using the miScript II RT Kit (Qiagen) in a total volume of 40 μL reaction. Serial dilutions of the RT reactions (1:10) were used to create a standard curve of copy number versus Ct which was used to calculate copy numbers of each transcript in DU-145 and MDA-MB-231 cells.

Cellular uptake analysis = format: in vitro ADME, human; conditions: 5 μM, 24 h, DU-145 and MDA-MB-231
Method: Cellular uptake analysis. DU145 and MDA-MB-231 cells were seeded into a 96-well white clear bottom plate at 10,000 cells/well and allowed to adhere overnight. Once adhered, the cells were grown to ˜50% confluency and then treated with 2, 5, or 7 at 5 μM for 24 h while also leaving untreated wells for generation of a standard curve. This concentration was chosen to allow for adequate signal above noise. After 24 h, cells were lysed in 100 μL of RNA lysis buffer (Zymo Research) for 5 min. Compound 2, 5, or 7 were spiked into untreated samples at 100, 10, 1, 0.1, and 0.01 nM to create a standard curve of compound fluorescence. Using a Biotek FLX-800 fluorescence plate reader (excitation: 360/340; emission 460/440; sensitivity=90) the fluorescence of 2, 5, and 7 was measured. Concentrations were determined by extrapolating from the standard curves mentioned above.

[3] = biological target: bulges 5′G_U/3′CUA, 5′GGU/3′C_A and 5′GAU/3′C_A; conditions: previous study, cited from earlier work

SMILES: Cc1c(N)nc([C@H](CC(N)=O)NC[C@H](N)C(N)=O)nc1C(=O)N[C@H](C(=O)N[C@H](C)[C@@H](O)[C@H](C)C(=O)N[C@H](C(=O)NCCc1nc(-c2nc(C(=O)NCCCNCCCCN)cs2)cs1)[C@@H](C)O)[C@@H](O[C@@H]1O[C@@H](CO)[C@@H](O)[C@H](O)[C@@H]1O[C@@H]1O[C@H](CO)[C@@H](O)[C@H](OC(N)=O)[C@@H]1O)c1cnc[nH]1 [Bleomycin A5]
- cleavage of plasmid DNA (plasmid DNA): significantly cleaved DNA

SMILES: CCCN(CC(=O)N(CCC)CC(=O)N(CCC)CC(=O)N(CC(=O)NCCOCCOCCOCCOc1ccc(/C=C2\SC(Nc3ccccc3)=C(C(=O)OCC)C2=O)cc1O)Cc1cn(CCCNC(=O)CCCOc2c(C(C)(C)C)cc(-c3nc4cc(-c5ccc(N6CCN(C)CC6)cc5)ccc4[nH]3)cc2C(C)(C)C)nn1)C(=O)CN(Cc1cn(CCCNC(=O)CCCOc2c(C(C)(C)C)cc(-c3nc4cc(-c5ccc(N6CCN(C)CC6)cc5)ccc4[nH]3)cc2C(C)(C)C)nn1)C(C)=O [Compound 7]
- mature and pre-miRNA levels of the pre-miRNAs that bind 2 (pri-miR-17-92 cluster [1]): reduced levels
- pri-miR-17/92 levels (pri-miR-17-92 cluster [1]): No effect
- decrease of pre-miR-17 levels (pri-miR-17-92 cluster [2]; MDA-MB-231, 7 at 500 nM): 31(±3) %
- decrease of pre-miR-18a levels (pri-miR-17-92 cluster [2]; MDA-MB-231, 7 at 500 nM): 19(±4) %
- decrease of pre-miR-20a levels (pri-miR-17-92 cluster [2]; MDA-MB-231, 7 at 500 nM): 36(±3) %
- pri-miR-17/92 levels (pri-miR-17-92 cluster [2]; MDA-MB-231, 7 at 500 nM): unchanged
- levels of mature miR-17, miR-18a and miR-20a (pri-miR-17-92 cluster [2]; MDA-MB-231, treatment with 7): reduced the levels of mature miR-17, miR-18a, and miR-20a dose dependently
- levels of the other three mature miRNAs in the cluster (pri-miR-17-92 cluster [2]; MDA-MB-231, treatment with 7): no effect
- cellular uptake (Cellular uptake analysis): taken up to a similar extent as 2

SMILES: CN1CCN(c2ccc(-c3ccc4nc(-c5cc(C(C)(C)C)c(OCCCC(=O)NCCCN=[N+]=[N-])c(C(C)(C)C)c5)[nH]c4c3)cc2)CC1 [Compound 1]
- pKd ([3]; bulges of pre-miR-17, -18a, -20a, read-out: Kd's of 1 for the three bulges): 4.40 to 4.52
- binding of 1 to RNAs with bulges mutated to GC or AU base pairs [3]: No binding was observed

— patent US20230149554A1, “TARGETED DEGRADATION OF THE ONCOGENIC MICRORNA 17-92 CLUSTER BY STRUCTURE-TARGETING LIGANDS” (University of Florida Research Foundation, Incorporated, priority 2020, published 2023)
